The source of these data is PubChem BioAssay (NCI).

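Test compounds were applied to cells in 96-well plates for 48 hours at 5 doses. Here, GI50 denotes the concentration required for 50% inhibition of growth. At the TGI there is no net growth.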

Among the test systems are A549 NSCLC; HCC-2998 colon; IGROV1 ovarian; MALME-3M melanoma; MOLT-4 leukemia; OVCAR-5 ovarian; SF-539 CNS; SK-OV-3 ovarian; CAKI-1 renal; NCI-H460 lung.
Common to all, as to assay: NCI-60 cell line screen, 48 h

As for `CCOC(=O)c1ccc(N2C(=O)Cc3ccccc3C2=O)cc1`, the TGI in the assay on A549 NSCLC, in the assay with HCC-2998 colon, with IGROV1 ovarian, with MALME-3M melanoma, with MOLT-4 leukemia and with OVCAR-5 ovarian was more than 100 µM each time. Moreover, the TGI with SF-539 CNS and in the assay on SK-OV-3 ovarian was more than 100 µM throughout.
As for `C=C1C(OC/C=C/COC2O[C@@H]3O[C@@]4(C)CC[C@H]5[C@H](C)CC[C@@H](C2=C)[C@@]35OO4)O[C@@H]2O[C@@]3(C)CC[C@H]4[C@H](C)CC[C@@H]1[C@@]24OO3` (some centres not stated), the GI50 with A549 NSCLC is 7.48 µM; in the assay with CAKI-1 renal it was 1.63 µM; with IGROV1 ovarian it was 1.6 µM; in the assay with MALME-3M melanoma it was 0.301 µM; in the assay with MOLT-4 leukemia, 0.309 µM; with NCI-H460 lung, 5.18 µM. Besides, the GI50 in the assay with OVCAR-5 ovarian was 0.0489 µM; in the assay with SF-539 CNS, 10 µM; with SK-OV-3 ovarian it was 51.3 µM. The TGI with A549 NSCLC was more than 60.5 µM; with CAKI-1 renal it was 21.7 µM; with IGROV1 ovarian it was more than 36.6 µM; in the assay on MALME-3M melanoma it was 18.4 µM; in the assay with MOLT-4 leukemia, more than 100 µM; in the assay with NCI-H460 lung it was 27.2 µM. Also, the TGI with OVCAR-5 ovarian is 18.8 µM; with SF-539 CNS it was 25.2 µM; in the assay on SK-OV-3 ovarian it was more than 100 µM.
On to `CCN(CC)c1ccc(N=C2C=C(Cl)C(=O)c3ncccc32)c(C)c1`, for which the TGI amounted to 48.5 µM with A549 NSCLC; 12 µM with CAKI-1 renal; 32 µM in the assay with IGROV1 ovarian; 10.5 µM with MALME-3M melanoma; 13.8 µM with MOLT-4 leukemia; 39 µM in the assay with NCI-H460 lung. Further, the TGI in the assay with SF-539 CNS stood at 28 µM; in the assay with SK-OV-3 ovarian, 67.9 µM.
On to `Cc1c(-c2nnc(-c3ccccc3)o2)c(=O)n(-c2ccccc2)n1C`, for which the TGI with A549 NSCLC, in the assay with HCC-2998 colon, in the assay on IGROV1 ovarian, in the assay with MALME-3M melanoma, in the assay with MOLT-4 leukemia and in the assay on NCI-H460 lung was more than 100 µM in each case. The TGI in the assay on SF-539 CNS and in the assay with SK-OV-3 ovarian was more than 100 µM in each case.
Turning to `COc1ccc2c(c1)c(-c1ccc(-c3cn(C)c4ccc(OC)cc34)[nH]1)cn2C`, the GI50 in the assay on A549 NSCLC was 4.04 µM; with CAKI-1 renal, 3.36 µM; in the assay on IGROV1 ovarian, 1.89 µM; with MALME-3M melanoma, 2.64 µM; in the assay with MOLT-4 leukemia, 4.13 µM; in the assay on NCI-H460 lung, 4.09 µM. Also, the GI50 with OVCAR-5 ovarian was 3.11 µM; with SF-539 CNS it was 1.92 µM; in the assay with SK-OV-3 ovarian, 3.19 µM. Also, the TGI with A549 NSCLC was determined as 17.6 µM; in the assay on CAKI-1 renal, 11.2 µM; in the assay on IGROV1 ovarian, 4.35 µM; in the assay with MALME-3M melanoma it was 9.03 µM; in the assay on MOLT-4 leukemia, 29.7 µM; with NCI-H460 lung, 19.5 µM. Moreover, the TGI with OVCAR-5 ovarian amounted to 11 µM; in the assay with SF-539 CNS it was 3.96 µM; with SK-OV-3 ovarian, 20.9 µM.
With `O=C(O)c1ccccc1N=Nc1ccc2oc(=O)c(C(=O)Nc3ccccc3)cc2c1`, the TGI was more than 100 µM in the assay with A549 NSCLC; more than 100 µM in the assay with IGROV1 ovarian; 70.3 µM in the assay on MALME-3M melanoma; more than 100 µM in the assay on MOLT-4 leukemia; more than 100 µM in the assay with NCI-H460 lung; more than 100 µM in the assay with SF-539 CNS. Moreover, the TGI in the assay on SK-OV-3 ovarian was more than 100 µM.
Regarding `CN(C)CCCCn1ccc2c1C(=O)c1c(c(O)c3ccccc3c1O)C2=O`, the GI50 is 18.9 µM with A549 NSCLC; 4.02 µM in the assay with CAKI-1 renal; 18.6 µM in the assay with IGROV1 ovarian; 19.2 µM with NCI-H460 lung; 12.9 µM with OVCAR-5 ovarian; 11.4 µM with SK-OV-3 ovarian. Further, the TGI is 36.8 µM in the assay on A549 NSCLC; 17.5 µM with CAKI-1 renal; more than 100 µM in the assay with IGROV1 ovarian; 36.9 µM with NCI-H460 lung; 25.6 µM in the assay with OVCAR-5 ovarian; 24 µM with SK-OV-3 ovarian.
Turning to `CCOC(=O)C(C)(C)Oc1ccc2c(-c3ccc(Cl)cc3)c(-c3ccc(Cl)cc3)c(=O)oc2c1`, the TGI in the assay with A549 NSCLC, in the assay on HCC-2998 colon, in the assay with IGROV1 ovarian, with MALME-3M melanoma, in the assay on MOLT-4 leukemia and in the assay on NCI-H460 lung was more than 100 µM in each case. Moreover, in the assay on SF-539 CNS, the TGI was more than 100 µM.
Take `OCC(CCc1c[nH]c2ccccc12)c1c[nH]c2ccccc12` (configuration not stated): the TGI with A549 NSCLC turned out to be 47.2 µM; in the assay on CAKI-1 renal it was 77.4 µM; with IGROV1 ovarian, 27.5 µM; with MALME-3M melanoma, 32.2 µM; in the assay with MOLT-4 leukemia, 52.1 µM; with NCI-H460 lung, 28 µM. Moreover, the TGI with OVCAR-5 ovarian came to 33.2 µM; with SF-539 CNS, 33.6 µM; in the assay on SK-OV-3 ovarian, 98.5 µM.
Take `CSc1ccc(SC2c3ccc(C)cc3Oc3nc(N)c(C#N)c(N)c32)cc1` (configuration not stated): the GI50 is 1.82 µM in the assay with A549 NSCLC; 1.78 µM in the assay on HCC-2998 colon; 1.28 µM in the assay on IGROV1 ovarian; 1.54 µM in the assay on MALME-3M melanoma; 2.39 µM in the assay with MOLT-4 leukemia; 2.03 µM in the assay with NCI-H460 lung. For the same compound, the figures for the GI50 in the assay on OVCAR-5 ovarian, with SF-539 CNS and with SK-OV-3 ovarian were 1.71 µM, 1.56 µM and 1.83 µM, respectively. Further, the TGI in the assay with A549 NSCLC came to 3.68 µM; in the assay on HCC-2998 colon, 3.28 µM; in the assay on IGROV1 ovarian, 3.05 µM; in the assay on MALME-3M melanoma, 3.01 µM; with MOLT-4 leukemia, 6.05 µM; in the assay on NCI-H460 lung, 4.07 µM. Besides, the results for the TGI in the assay with OVCAR-5 ovarian, in the assay on SF-539 CNS and in the assay with SK-OV-3 ovarian were 3.24 µM, 2.98 µM and 3.29 µM, respectively.
Turning to `Fc1ccc2c(c1)C1=C(CO2)C(c2ccc(Cl)cc2)NC(=S)N1` (configuration not stated), the GI50 with A549 NSCLC was 33.2 µM; with CAKI-1 renal it was 19.1 µM; in the assay with IGROV1 ovarian, 24.3 µM; with MOLT-4 leukemia, 39.5 µM; in the assay with NCI-H460 lung it was 21.9 µM; in the assay with OVCAR-5 ovarian it was 28.2 µM. Besides, the results for the GI50 in the assay with SF-539 CNS and with SK-OV-3 ovarian were 23 µM and 68.8 µM, respectively. Besides, the TGI with A549 NSCLC was more than 100 µM; in the assay with CAKI-1 renal it was 59.6 µM; in the assay on IGROV1 ovarian it was 61 µM; in the assay on MOLT-4 leukemia, more than 100 µM; with NCI-H460 lung it was 61.8 µM; in the assay on OVCAR-5 ovarian it was 84.3 µM. Further, the TGI with SF-539 CNS was 44.1 µM; with SK-OV-3 ovarian it was more than 100 µM.
As for `c1ccc(B2OCC(C3OB(c4ccccc4)OC4COB(c5ccccc5)OC43)O2)cc1` (configuration not stated), the TGI with A549 NSCLC, in the assay on CAKI-1 renal, in the assay on IGROV1 ovarian, in the assay with MALME-3M melanoma, in the assay with MOLT-4 leukemia and in the assay with NCI-H460 lung was more than 100 µM each time. In addition, the TGI in the assay with OVCAR-5 ovarian, in the assay on SF-539 CNS and in the assay with SK-OV-3 ovarian was more than 100 µM each time.
As to `CCOC(=O)N1C(c2ccccc2)C=CC(c2ccccc2)N1C(=O)OCC` (configuration not stated), the TGI with A549 NSCLC, with CAKI-1 renal, with IGROV1 ovarian, in the assay with MALME-3M melanoma, in the assay on NCI-H460 lung and in the assay on OVCAR-5 ovarian was more than 100 µM each time. This compound also returned a TGI in the assay with SF-539 CNS of more than 100 µM.
Take `Cc1ccccc1C(=O)Oc1ccc(OCc2ccccc2)cc1`: the TGI in the assay on A549 NSCLC, with HCC-2998 colon, in the assay on IGROV1 ovarian, with MALME-3M melanoma, with MOLT-4 leukemia and in the assay on NCI-H460 lung was more than 100 µM throughout. The TGI in the assay on OVCAR-5 ovarian, in the assay on SF-539 CNS and in the assay with SK-OV-3 ovarian was more than 100 µM each time.
Regarding `CC(=O)OC1CCC2C(=CCC3C2(C)C(=O)CC2(C)C(C4(C)OC(C(C)C)=CC4=O)C(O)CC32C)C1(C)C` (configuration not stated), the TGI is more than 100 µM in the assay on A549 NSCLC; more than 100 µM with CAKI-1 renal; more than 100 µM in the assay on IGROV1 ovarian; 47.4 µM in the assay on MALME-3M melanoma; more than 100 µM with MOLT-4 leukemia; 66.4 µM with NCI-H460 lung. The TGI with OVCAR-5 ovarian is more than 100 µM; in the assay on SF-539 CNS, 33.2 µM; in the assay on SK-OV-3 ovarian, more than 100 µM.
Take `Cc1cc(N(CCCNc2ccnc3cc(Cl)ccc23)Cc2ccc3c(c2)OCO3)nc(N2CCCCC2)n1`: the GI50 was 2.62 µM in the assay on A549 NSCLC; 2.09 µM with HCC-2998 colon; 1.58 µM with IGROV1 ovarian; 1.97 µM in the assay on MALME-3M melanoma; 2.44 µM in the assay with OVCAR-5 ovarian; 1.82 µM with SF-539 CNS. Further, in the assay with SK-OV-3 ovarian, the GI50 was 2.74 µM. The TGI came to 7.37 µM with A549 NSCLC; 4.79 µM in the assay on HCC-2998 colon; 3.87 µM with IGROV1 ovarian; 3.75 µM in the assay with MALME-3M melanoma; 7.04 µM in the assay on OVCAR-5 ovarian; 3.36 µM in the assay with SF-539 CNS. This compound showed a TGI in the assay with SK-OV-3 ovarian of 8.46 µM.
Regarding `Cn1ccnc1CCc1ccc(Cl)c(Cl)c1`, the TGI with A549 NSCLC, in the assay with CAKI-1 renal, in the assay on IGROV1 ovarian, in the assay on MALME-3M melanoma, with MOLT-4 leukemia and in the assay on NCI-H460 lung was more than 100 µM throughout. Further, the TGI in the assay with OVCAR-5 ovarian, with SF-539 CNS and in the assay on SK-OV-3 ovarian was more than 100 µM throughout.
As to `Clc1cc(-c2ccccc2)nc2ccccc12`, the TGI with A549 NSCLC is more than 100 µM; in the assay with CAKI-1 renal, more than 100 µM; in the assay on IGROV1 ovarian it was more than 100 µM; with MALME-3M melanoma, more than 100 µM; in the assay on MOLT-4 leukemia it was 54.6 µM; in the assay with NCI-H460 lung, more than 100 µM. Also, the TGI in the assay on OVCAR-5 ovarian, in the assay with SF-539 CNS and with SK-OV-3 ovarian was more than 100 µM each time.
In the case of `C=C1CCCC2[C@](C)(CC3=C(O)C(=O)C=C(OC)C3=O)[C@@H](C)CC[C@]12C` (some centres not stated), the TGI in the assay with A549 NSCLC worked out at 11 µM; with CAKI-1 renal it was 27.9 µM; in the assay on IGROV1 ovarian, 16 µM; in the assay with MALME-3M melanoma it was 9.93 µM; in the assay with NCI-H460 lung it was 17.5 µM; with SF-539 CNS, 16 µM. In the assay on SK-OV-3 ovarian, this compound returned a TGI of 62.2 µM.
